From publication PMC4312132, “Phenylalanine in the Pore of the Erwinia Ligand-Gated Ion Channel Modulates Picrotoxinin Potency but Not Receptor Function” (Biochemistry, 2014)
Read-outs that look alike come from different tables or passages of the source.

Legend:
[1] = biological target: T1, F16′Y ELIC (Dickeya chrysanthemi, UniProt P0C7B7, F246Y); test: GABA activation of F16′Y ELIC, two-electrode voltage clamp in Xenopus oocytes; type: cell-based, Erwinia chrysanthemii; details: F16′Y ELIC; GABA concentration–response
T1 construct: expressed in transfected cells; host or cells: Xenopus laevis oocytes (cRNA injection)

[2] = biological target: T2, F16′S ELIC (Dickeya chrysanthemi, UniProt P0C7B7, F246S); test: GABA activation of F16′S ELIC, two-electrode voltage clamp in Xenopus oocytes; type: cell-based, Erwinia chrysanthemii; details: F16′S ELIC; GABA concentration–response
T2 construct: expressed in transfected cells; host or cells: Xenopus laevis oocytes (cRNA injection)

[3] = biological target: T3, F16′T ELIC (Dickeya chrysanthemi, UniProt P0C7B7, F246T); test: GABA activation of F16′T ELIC, two-electrode voltage clamp in Xenopus oocytes; type: cell-based, Erwinia chrysanthemii; details: F16′T ELIC; GABA concentration–response
T3 construct: expressed in transfected cells; host or cells: Xenopus laevis oocytes (cRNA injection)

[4] = biological target: T4, F16′A ELIC (Dickeya chrysanthemi, UniProt P0C7B7, F246A); test: GABA activation of F16′A ELIC, two-electrode voltage clamp in Xenopus oocytes; type: cell-based, Erwinia chrysanthemii; details: F16′A ELIC; GABA concentration–response
T4 construct: expressed in transfected cells; host or cells: Xenopus laevis oocytes (cRNA injection)
Method: (§1) Xenopus laevis oocyte-positive females were purchased from NASCO (Fort Atkinson, WI) and maintained according to standard methods. Harvested stage V and VI Xenopus oocytes were washed in four changes of Ca^2+-free ND96 [96 mM NaCl, 2 mM KCl, 1 mM MgCl2, and 5 mM HEPES (pH 7.5)], defolliculated in 1.5 mg mL^–1 collagenase type 1A for approximately 2 h, washed again in four changes of ND96, and stored in ND96 at 16 °C containing 2.5 mM sodium pyruvate, […] gentamycin, and 0.7 mM theophylline.
(§2) ELIC (GenBank accession number ADN00343.1) was kindly provided by C. Ulens. For expression in Xenopus oocytes, it was cloned into pGEMHE with the signal sequence of the human α7 nACh receptor. […] Stage V and VI oocytes were injected with 20 ng of cRNA, and currents were recorded 1–3 days postinjection.
(§3) Using two-electrode voltage clamp, Xenopus oocytes were clamped at −60 mV using an OC-725 amplifier (Warner Instruments, Hamden, CT), Digidata 1322A, and the Strathclyde Electrophysiology Software Package (Department of Physiology and Pharmacology, University of Strathclyde, Glasgow, U.K.). Currents were recorded at 5 kHz and filtered at a frequency of 1 kHz. […] Inhibition by test compounds was measured at the GABA EC50 for each mutant. […]

[5] = biological target: T5, T6′A ELIC (Dickeya chrysanthemi, UniProt P0C7B7, T236A); test: GABA activation of T6′A ELIC, two-electrode voltage clamp in Xenopus oocytes; type: cell-based, Erwinia chrysanthemii; details: T6′A ELIC; GABA concentration–response
T5 construct: expressed in transfected cells; host or cells: Xenopus laevis oocytes (cRNA injection)

[6] = biological target: T6, F16′E ELIC (Dickeya chrysanthemi, UniProt P0C7B7, F246E); test: GABA activation of F16′E ELIC, two-electrode voltage clamp in Xenopus oocytes; type: cell-based, Erwinia chrysanthemii
T6 construct: expressed in transfected cells; host or cells: Xenopus laevis oocytes (cRNA injection)
Method: as §1, §2, §3

[7] = biological target: T7, T6′S ELIC (Dickeya chrysanthemi, UniProt P0C7B7, T236S); test: GABA activation of T6′S ELIC, two-electrode voltage clamp in Xenopus oocytes; type: cell-based, Erwinia chrysanthemii; details: T6′S ELIC; GABA concentration–response
T7 construct: expressed in transfected cells; host or cells: Xenopus laevis oocytes (cRNA injection)

[8] = biological target: T8, Q2′N ELIC (Dickeya chrysanthemi, UniProt P0C7B7, Q232N); test: GABA activation of Q2′N ELIC, two-electrode voltage clamp in Xenopus oocytes; type: cell-based, Erwinia chrysanthemii; details: Q2′N ELIC; GABA concentration–response
T8 construct: expressed in transfected cells; host or cells: Xenopus laevis oocytes (cRNA injection)

[9] = biological target: T9, F16′W ELIC (Dickeya chrysanthemi, UniProt P0C7B7, F246W); test: GABA activation of F16′W ELIC, two-electrode voltage clamp in Xenopus oocytes; type: cell-based, Erwinia chrysanthemii; details: F16′W ELIC; GABA concentration–response
T9 construct: expressed in transfected cells; host or cells: Xenopus laevis oocytes (cRNA injection)

[10] = biological target: T10, Q2′A ELIC (Dickeya chrysanthemi, UniProt P0C7B7, Q232A); test: GABA activation of Q2′A ELIC, two-electrode voltage clamp in Xenopus oocytes; type: cell-based, Erwinia chrysanthemii; details: Q2′A receptors
T10 construct: expressed in transfected cells; host or cells: Xenopus laevis oocytes (cRNA injection)
Method: as §1, §2, §3

[11] = biological target: T11, F16′S/T6′S ELIC (Dickeya chrysanthemi, UniProt P0C7B7, F246S/T236S); test: GABA activation of F16′S/T6′S ELIC, two-electrode voltage clamp in Xenopus oocytes; type: cell-based, Erwinia chrysanthemii; details: F16′S/T6′S ELIC; GABA concentration–response
T11 construct: expressed in transfected cells; host or cells: Xenopus laevis oocytes (cRNA injection)

[12] = biological target: T12, wild type ELIC (Dickeya chrysanthemi, UniProt P0C7B7); test: GABA activation of wild-type ELIC, two-electrode voltage clamp in Xenopus oocytes; type: cell-based, Erwinia chrysanthemii
T12 construct: expressed in transfected cells; host or cells: Xenopus laevis oocytes (cRNA injection)
Method: as §1
(§4) ELIC (GenBank accession number ADN00343.1) was kindly provided by C. Ulens. For expression in Xenopus oocytes, it was cloned into pGEMHE with the signal sequence of the human α7 nACh receptor. Site-directed mutagenesis was performed with the QuikChange mutagenesis kit (Stratagene, La Jolla, CA). cRNA was transcribed in vitro from the linearized pGEMHE cDNA template using the mMessage mMachine T7 transcription kit (Ambion, Austin, TX). Stage V and VI oocytes were injected with 20 ng of cRNA, and currents were recorded 1–3 days postinjection.
(§5) Using two-electrode voltage clamp, Xenopus oocytes were clamped at −60 mV using an OC-725 amplifier (Warner Instruments, Hamden, CT), Digidata 1322A, and the Strathclyde Electrophysiology Software Package (Department of Physiology and Pharmacology, University of Strathclyde, Glasgow, U.K.). Currents were recorded at 5 kHz and filtered at a frequency of 1 kHz. Microelectrodes were fabricated from borosilicate glass (GC120TF-10, Harvard Apparatus, Edenbridge, Kent, U.K.) using a one-stage horizontal pull (P-87, Sutter Instrument Co., Novato, CA) and filled with 3 M KCl. Pipette resistances ranged from 1.0 to 2.0 MΩ. Oocytes were perfused with ND96 at a constant rate of 12 mL min^–1 with complete solution exchange within 5 s. Drug application was accomplished via a simple gravity-fed system calibrated to run at the same rate. Inhibition by test compounds was measured at the GABA EC50 for each mutant.
Analysis and curve fitting were performed using Prism version 4.03 (GraphPad Software, San Diego, CA). […]

[13] = biological target: T13, F16′D ELIC (Dickeya chrysanthemi, UniProt P0C7B7, F246D); test: GABA activation of F16′D ELIC, two-electrode voltage clamp in Xenopus oocytes; type: cell-based, Erwinia chrysanthemii; details: F16′D ELIC; GABA concentration–response
T13 construct: expressed in transfected cells; host or cells: Xenopus laevis oocytes (cRNA injection)

[14] = biological target: T14, F16′Q ELIC (Dickeya chrysanthemi, UniProt P0C7B7, F246Q); test: GABA activation of F16′Q ELIC, two-electrode voltage clamp in Xenopus oocytes; type: cell-based, Erwinia chrysanthemii; details: F16′Q ELIC; GABA concentration–response
T14 construct: expressed in transfected cells; host or cells: Xenopus laevis oocytes (cRNA injection)

[15] = biological target: T15, F16′L ELIC (Dickeya chrysanthemi, UniProt P0C7B7, F246L); test: GABA activation of F16′L ELIC, two-electrode voltage clamp in Xenopus oocytes; type: cell-based, Erwinia chrysanthemii
T15 construct: expressed in transfected cells; host or cells: Xenopus laevis oocytes (cRNA injection)
Method: as §1, §2, §3

[16] = biological target: T9, F16′W ELIC; test: Inhibition of GABA-elicited currents of F16′W ELIC in Xenopus oocytes; type: cell-based, Erwinia chrysanthemii; details: F16′W ELIC
[17] = biological target: T3, F16′T ELIC; test: Inhibition of GABA-elicited currents of F16′T ELIC in Xenopus oocytes; type: cell-based, Erwinia chrysanthemii; details: F16′T ELIC; inhibition curve
[18] = biological target: T5, T6′A ELIC; test: Inhibition of GABA-elicited currents of T6′A ELIC in Xenopus oocytes; type: cell-based, Erwinia chrysanthemii; details: T6′A ELIC; inhibition curve
Method: as §1, §2, §3

[19] = biological target: T6, F16′E ELIC; test: Inhibition of GABA-elicited currents of F16′E ELIC in Xenopus oocytes; type: cell-based, Erwinia chrysanthemii; details: F16′E ELIC; inhibition curve
[20] = biological target: T13, F16′D ELIC; test: Inhibition of GABA-elicited currents of F16′D ELIC in Xenopus oocytes; type: cell-based, Erwinia chrysanthemii; details: F16′D ELIC; inhibition curve
Method: as §1, §2, §3

[21] = biological target: T4, F16′A ELIC; test: Inhibition of GABA-elicited currents of F16′A ELIC in Xenopus oocytes; type: cell-based, Erwinia chrysanthemii; details: F16′A ELIC; inhibition curve
[22] = biological target: T8, Q2′N ELIC; test: Inhibition of GABA-elicited currents of Q2′N ELIC in Xenopus oocytes; type: cell-based, Erwinia chrysanthemii; details: Q2′N ELIC; inhibition curve
[23] = system: GLIC; design: method as in PMID 22677470, PMID 22208189; details: cited from earlier work
[24] = biological target: T7, T6′S ELIC; test: Inhibition of GABA-elicited currents of T6′S ELIC in Xenopus oocytes; type: cell-based, Erwinia chrysanthemii; details: T6′S ELIC; inhibition curve
[25] = biological target: T2, F16′S ELIC; test: Inhibition of GABA-elicited currents of F16′S ELIC in Xenopus oocytes; type: cell-based, Erwinia chrysanthemii; details: F16′S ELIC
[26] = biological target: T12, wild type ELIC; test: Inhibition of GABA-elicited currents of wild-type ELIC in Xenopus oocytes; type: cell-based, Erwinia chrysanthemii
Method: as §1, §4, §5
Analysis and curve fitting were performed using Prism version 4.03 (GraphPad Software, San Diego, CA). Concentration–response data for each oocyte were normalized to the maximal current for that oocyte and the mean ± standard error of the mean (SEM) for a series of oocytes pooled and plotted against agonist or antagonist concentration and iteratively fit to the four-parameter logistic equation. Statistical analysis was performed using a Student’s t test.

[27] = system: F16′A mutant ELIC; details: F16′A mutant vs wild type; as previously shown; cited from earlier work
[28] = biological target: T12, wild type ELIC; details: previously identified; cited from earlier work
[29] = system: ELIC with mutations of residues 2′ and 6′; details: mutations of residues 2′ and 6′ in ELIC; cited from earlier work

T12 sequence (P0C7B7 whole entry): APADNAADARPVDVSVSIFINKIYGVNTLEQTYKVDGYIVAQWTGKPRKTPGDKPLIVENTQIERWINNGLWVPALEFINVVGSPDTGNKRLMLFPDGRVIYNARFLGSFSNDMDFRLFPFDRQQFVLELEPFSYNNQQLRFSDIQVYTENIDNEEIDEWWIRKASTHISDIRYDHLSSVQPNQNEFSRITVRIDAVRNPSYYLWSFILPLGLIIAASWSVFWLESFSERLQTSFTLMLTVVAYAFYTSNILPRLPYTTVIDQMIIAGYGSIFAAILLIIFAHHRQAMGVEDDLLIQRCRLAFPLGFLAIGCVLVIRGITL
T2 sequence (P0C7B7 whole entry F246S): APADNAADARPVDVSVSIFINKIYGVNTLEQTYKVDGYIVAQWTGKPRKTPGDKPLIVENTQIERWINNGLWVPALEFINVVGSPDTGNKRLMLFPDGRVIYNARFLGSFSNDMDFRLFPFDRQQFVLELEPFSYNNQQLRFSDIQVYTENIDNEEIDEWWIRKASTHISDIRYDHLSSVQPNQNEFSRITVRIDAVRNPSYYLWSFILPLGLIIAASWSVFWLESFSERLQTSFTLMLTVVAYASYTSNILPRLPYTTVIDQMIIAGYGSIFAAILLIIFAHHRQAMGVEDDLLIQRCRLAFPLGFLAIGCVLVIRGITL
T9 sequence (P0C7B7 whole entry F246W): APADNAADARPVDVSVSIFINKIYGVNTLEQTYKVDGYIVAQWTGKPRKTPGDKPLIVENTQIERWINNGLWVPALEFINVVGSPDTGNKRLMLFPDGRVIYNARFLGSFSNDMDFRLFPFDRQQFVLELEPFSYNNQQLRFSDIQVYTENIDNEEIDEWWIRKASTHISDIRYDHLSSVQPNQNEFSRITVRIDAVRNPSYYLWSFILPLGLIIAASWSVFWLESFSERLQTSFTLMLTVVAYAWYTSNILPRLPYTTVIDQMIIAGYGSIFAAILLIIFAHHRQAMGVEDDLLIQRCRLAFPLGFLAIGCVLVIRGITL
T6 sequence (P0C7B7 whole entry F246E): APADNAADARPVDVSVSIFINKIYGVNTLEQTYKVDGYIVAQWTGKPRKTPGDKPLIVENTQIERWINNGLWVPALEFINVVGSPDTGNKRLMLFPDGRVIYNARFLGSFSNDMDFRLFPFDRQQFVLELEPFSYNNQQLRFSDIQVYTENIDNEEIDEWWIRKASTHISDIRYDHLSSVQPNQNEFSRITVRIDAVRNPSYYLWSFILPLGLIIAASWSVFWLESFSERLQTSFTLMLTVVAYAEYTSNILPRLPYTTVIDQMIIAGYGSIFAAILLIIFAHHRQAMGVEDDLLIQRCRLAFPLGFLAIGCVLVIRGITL
T15 sequence (P0C7B7 whole entry F246L): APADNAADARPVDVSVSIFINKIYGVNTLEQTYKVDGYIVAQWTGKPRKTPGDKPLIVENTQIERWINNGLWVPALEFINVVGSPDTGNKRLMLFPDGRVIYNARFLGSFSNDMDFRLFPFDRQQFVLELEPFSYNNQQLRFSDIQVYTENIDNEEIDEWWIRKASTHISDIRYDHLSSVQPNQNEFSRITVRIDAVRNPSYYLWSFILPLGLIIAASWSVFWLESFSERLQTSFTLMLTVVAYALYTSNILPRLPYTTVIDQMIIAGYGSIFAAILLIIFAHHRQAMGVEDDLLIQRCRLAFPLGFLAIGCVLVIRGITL
T7 sequence (P0C7B7 whole entry T236S): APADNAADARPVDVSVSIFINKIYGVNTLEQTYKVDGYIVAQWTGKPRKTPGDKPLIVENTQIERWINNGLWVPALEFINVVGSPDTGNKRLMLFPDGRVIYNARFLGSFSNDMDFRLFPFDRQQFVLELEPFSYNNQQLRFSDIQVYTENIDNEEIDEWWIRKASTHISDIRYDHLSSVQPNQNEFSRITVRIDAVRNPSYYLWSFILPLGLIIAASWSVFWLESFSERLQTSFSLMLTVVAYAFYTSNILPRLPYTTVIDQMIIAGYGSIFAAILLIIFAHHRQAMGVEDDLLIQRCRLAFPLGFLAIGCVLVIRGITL
T8 sequence (P0C7B7 whole entry Q232N): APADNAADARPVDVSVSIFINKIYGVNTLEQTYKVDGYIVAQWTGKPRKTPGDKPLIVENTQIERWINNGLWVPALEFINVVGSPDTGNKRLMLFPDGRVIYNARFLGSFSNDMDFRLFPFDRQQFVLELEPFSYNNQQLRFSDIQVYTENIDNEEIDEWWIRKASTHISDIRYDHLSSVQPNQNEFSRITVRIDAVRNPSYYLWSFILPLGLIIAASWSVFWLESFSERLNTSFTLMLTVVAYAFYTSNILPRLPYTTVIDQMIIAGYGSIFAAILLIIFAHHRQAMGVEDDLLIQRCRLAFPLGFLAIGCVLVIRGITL
T3 sequence (P0C7B7 whole entry F246T): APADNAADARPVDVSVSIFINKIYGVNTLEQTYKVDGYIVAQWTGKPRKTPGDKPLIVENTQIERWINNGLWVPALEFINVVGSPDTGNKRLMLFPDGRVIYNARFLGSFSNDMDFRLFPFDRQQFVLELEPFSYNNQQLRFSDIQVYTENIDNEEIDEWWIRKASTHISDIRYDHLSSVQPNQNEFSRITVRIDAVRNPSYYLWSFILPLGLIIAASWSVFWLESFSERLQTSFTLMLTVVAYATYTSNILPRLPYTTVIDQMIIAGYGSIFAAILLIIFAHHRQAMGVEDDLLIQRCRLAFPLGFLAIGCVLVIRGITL
T13 sequence (P0C7B7 whole entry F246D): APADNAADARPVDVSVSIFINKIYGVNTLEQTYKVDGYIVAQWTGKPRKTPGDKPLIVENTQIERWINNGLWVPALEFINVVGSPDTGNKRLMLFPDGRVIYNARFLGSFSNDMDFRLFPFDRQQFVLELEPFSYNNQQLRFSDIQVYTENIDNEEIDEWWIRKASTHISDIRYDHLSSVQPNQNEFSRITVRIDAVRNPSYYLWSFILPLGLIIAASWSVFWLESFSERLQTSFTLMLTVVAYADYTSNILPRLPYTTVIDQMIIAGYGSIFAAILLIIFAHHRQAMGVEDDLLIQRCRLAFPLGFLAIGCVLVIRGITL
T5 sequence (P0C7B7 whole entry T236A): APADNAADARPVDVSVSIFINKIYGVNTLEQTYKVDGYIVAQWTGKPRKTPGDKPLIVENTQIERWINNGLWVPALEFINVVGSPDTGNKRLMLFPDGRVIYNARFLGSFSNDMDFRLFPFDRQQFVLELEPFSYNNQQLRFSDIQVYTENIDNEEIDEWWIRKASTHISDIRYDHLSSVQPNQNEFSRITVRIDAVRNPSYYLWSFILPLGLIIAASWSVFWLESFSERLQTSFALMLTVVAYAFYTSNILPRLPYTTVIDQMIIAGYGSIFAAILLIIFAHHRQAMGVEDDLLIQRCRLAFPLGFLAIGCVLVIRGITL
T4 sequence (P0C7B7 whole entry F246A): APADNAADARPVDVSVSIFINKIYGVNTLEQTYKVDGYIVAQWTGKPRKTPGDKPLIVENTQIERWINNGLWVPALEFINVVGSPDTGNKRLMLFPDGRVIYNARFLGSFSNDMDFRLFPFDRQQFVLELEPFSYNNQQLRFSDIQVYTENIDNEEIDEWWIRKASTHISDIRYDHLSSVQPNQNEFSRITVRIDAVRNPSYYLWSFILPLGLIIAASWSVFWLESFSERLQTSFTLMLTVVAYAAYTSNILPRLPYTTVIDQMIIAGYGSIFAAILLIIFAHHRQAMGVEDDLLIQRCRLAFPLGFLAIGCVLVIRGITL
T10 sequence (P0C7B7 whole entry Q232A): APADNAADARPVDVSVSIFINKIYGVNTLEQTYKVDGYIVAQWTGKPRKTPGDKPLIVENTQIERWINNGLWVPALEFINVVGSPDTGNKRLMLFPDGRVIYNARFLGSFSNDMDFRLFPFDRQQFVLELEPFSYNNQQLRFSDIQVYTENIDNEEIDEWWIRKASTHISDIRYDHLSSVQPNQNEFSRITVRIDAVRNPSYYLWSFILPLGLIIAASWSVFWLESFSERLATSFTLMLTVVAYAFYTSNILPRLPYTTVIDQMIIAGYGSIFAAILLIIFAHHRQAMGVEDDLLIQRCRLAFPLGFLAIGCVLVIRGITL
T11 sequence (P0C7B7 whole entry T236S/F246S): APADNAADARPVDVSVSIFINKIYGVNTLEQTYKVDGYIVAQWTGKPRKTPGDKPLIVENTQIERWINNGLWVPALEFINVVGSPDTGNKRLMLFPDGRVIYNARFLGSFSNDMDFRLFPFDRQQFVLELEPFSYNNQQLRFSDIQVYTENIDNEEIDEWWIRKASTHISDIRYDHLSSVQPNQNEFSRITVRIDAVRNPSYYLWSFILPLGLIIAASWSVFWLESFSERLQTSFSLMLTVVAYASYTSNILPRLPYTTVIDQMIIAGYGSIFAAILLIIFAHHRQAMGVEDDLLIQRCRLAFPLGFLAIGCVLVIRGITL
T14 sequence (P0C7B7 whole entry F246Q): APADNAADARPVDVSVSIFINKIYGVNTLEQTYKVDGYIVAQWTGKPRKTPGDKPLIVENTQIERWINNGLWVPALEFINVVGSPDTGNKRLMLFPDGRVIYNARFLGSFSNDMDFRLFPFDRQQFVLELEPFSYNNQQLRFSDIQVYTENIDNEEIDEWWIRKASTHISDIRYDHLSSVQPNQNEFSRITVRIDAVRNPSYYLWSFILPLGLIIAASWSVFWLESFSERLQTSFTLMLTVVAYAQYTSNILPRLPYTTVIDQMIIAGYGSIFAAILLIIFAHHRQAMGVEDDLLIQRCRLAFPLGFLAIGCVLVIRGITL
T1 sequence (P0C7B7 whole entry F246Y): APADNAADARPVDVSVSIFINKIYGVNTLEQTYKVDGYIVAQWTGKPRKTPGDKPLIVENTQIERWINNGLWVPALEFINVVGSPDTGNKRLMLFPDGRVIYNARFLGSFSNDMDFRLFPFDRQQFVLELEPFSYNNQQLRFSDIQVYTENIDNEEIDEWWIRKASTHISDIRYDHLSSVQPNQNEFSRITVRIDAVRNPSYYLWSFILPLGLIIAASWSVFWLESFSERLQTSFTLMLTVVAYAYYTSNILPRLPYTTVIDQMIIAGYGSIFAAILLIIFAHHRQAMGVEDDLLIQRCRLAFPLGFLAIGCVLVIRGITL

## NCCCC(=O)O [GABA, γ-aminobutyric acid]
[1]
  nH: 2.1 ± 0.3
[2]
  nH: 2.5 ± 0.6
[3]
  nH: 1.8 ± 0.3
[4]
  nH: 3.0 ± 0.5
[5]
  nH: 2.1 ± 0.1
[6]; F16′E ELIC vs wild type
  fold increase in EC50 compared to wild type: 16 fold
[6]; F16′E ELIC, GABA concentration–response
  nH: 1.3 ± 0.2
[7]
  nH: 2.7 ± 0.3
[8]
  nH: 2.6 ± 1.3
[9]
  nH: 3.6 ± 0.5
[10]
  response to application of 100 mM GABA: did not respond
[11]
  nH: 2.2 ± 0.7
[12]; GABA concentration–response
  nH (Hill slope): 2.5 ± 0.7
[12]; oocytes clamped at −60 mV, mean ± SEM, read-out: GABA pEC50 (converted)
  EC50: 1660 µM
[12]; read-out: GABA EC50
  EC50: 1600 µM
[13]
  nH: 2.5 ± 0.3
[14]
  nH: 2.3 ± 0.6
[15]; F16′L ELIC vs wild type
  fold change in EC50 compared to wild type: 32 fold
[15]; F16′L ELIC, GABA concentration–response
  nH: 1.6 ± 0.2

## C=C(C)[C@@H]1[C@H]2OC(=O)[C@@H]1[C@]1(O)C[C@H]3O[C@]34C(=O)O[C@H]2[C@]14C [PXN, Picrotoxinin]
[16]; co-application of 100 μM PXN with GABA EC50, read-out: inhibition of the GABA EC50 response
  inhibition at 100 µM: ~50%
[16]; inhibition curve
  nH: 1.3 ± 0.3
[17]
  nH: 0.9 ± 0.1
[18]
  nH: 1.8 ± 0.4
[19]
  nH: 0.6 ± 0.1
[20]
  nH: 1.0 ± 0.2
[21]
  nH: 1.0 ± 0.2
[22]
  nH: 1.6 ± 0.3
[23]
  IC50: 2.6 µM
[24]
  nH: 1.3 ± 0.3
[25]; co-application of 100 μM PXN with GABA EC50
  inhibition of the GABA EC50 response: completely abolishes
[25]; inhibition curve
  nH: 1.3 ± 0.3
[26]
  IC50: 72 µM
[26]; read-out: inhibition of the GABA EC50 response
  inhibition at 100 µM: ~50%
[26]; wild type ELIC, inhibition curve
  nH: 1.3 ± 0.3

## NCCS [cysteamine]
[27]
  fold change in cysteamine EC50: < 10 fold

## CCCC(C(=O)OCCN(CC)CC)(c1ccccc1)c1ccccc1 [proadifen]
[26]; wild type ELIC, inhibition measured at the GABA EC50, read-out: IC50
  IC50: 8.1 µM
[28]
  IC50: 8 µM

## O=S1OC[C@@H]2[C@H](CO1)[C@@]1(Cl)C(Cl)=C(Cl)[C@]2(Cl)C1(Cl)Cl (stereo partly drawn) [α-endosufan]
[29]
  inhibition of ELIC: abolish inhibition
